Reference: patent US9862717B2 (Merck Patent GmbH, priority 2014, dated 2018)

The compounds below were run against T1, CDK8/CycC (Homo sapiens, UniProt P49336) (assay: FRET based Lanthascreen binding competition assay for CDK8 inhibitory activity). Settings: CDK8 co-expressed with CycC; class symbols; read-out: IC50.
T1 construct: purchased Invitrogen PV4402
How it was run: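 Competition binding of a dye-labeled ATP-competitive Alexa647 probe to CDK8 co-expressed with CycC, Eu-labeled via biotinylated anti-His antibody/streptavidin.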

T1 sequence (P49336 whole entry): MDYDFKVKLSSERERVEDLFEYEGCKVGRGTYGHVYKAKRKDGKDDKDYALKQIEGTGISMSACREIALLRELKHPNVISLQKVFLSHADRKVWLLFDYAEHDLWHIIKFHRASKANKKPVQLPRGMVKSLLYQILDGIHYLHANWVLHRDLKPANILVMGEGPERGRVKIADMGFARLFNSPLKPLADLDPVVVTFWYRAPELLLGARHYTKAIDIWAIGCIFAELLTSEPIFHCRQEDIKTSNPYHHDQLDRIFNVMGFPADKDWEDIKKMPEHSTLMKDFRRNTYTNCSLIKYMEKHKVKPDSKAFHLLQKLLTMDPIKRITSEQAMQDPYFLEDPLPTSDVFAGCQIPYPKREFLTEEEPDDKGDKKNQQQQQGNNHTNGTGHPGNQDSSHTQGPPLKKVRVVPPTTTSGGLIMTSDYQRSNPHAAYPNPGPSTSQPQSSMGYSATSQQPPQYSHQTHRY
T1 sequence (P24863 whole entry partner): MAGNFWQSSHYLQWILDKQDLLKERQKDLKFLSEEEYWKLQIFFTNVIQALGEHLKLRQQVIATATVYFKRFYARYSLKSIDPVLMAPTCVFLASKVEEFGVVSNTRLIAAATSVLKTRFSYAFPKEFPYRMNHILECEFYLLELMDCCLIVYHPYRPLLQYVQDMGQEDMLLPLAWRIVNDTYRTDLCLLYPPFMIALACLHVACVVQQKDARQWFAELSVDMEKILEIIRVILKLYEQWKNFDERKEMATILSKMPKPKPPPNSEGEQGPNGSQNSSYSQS

First: Cc1n[nH]c2ncc(C(=O)N3CCC(O)(c4ccc(Cl)cc4)C3)cc12 (stereo not drawn) [compound 237, [3-(4-Chloro-phenyl)-3-hydroxy-pyrrolidin-1-yl]-(3-methyl-1H-pyrazolo[3,4-b]pyridin-5-yl)-methanone]
Second: Cc1n[nH]c2ncc(C(=O)N3CCC(CCO)(c4ccc(Cl)cc4)C3)cc12 (stereo not drawn) [compound 249, [3-(4-Chloro-phenyl)-3-(2-hydroxy-ethyl)-pyrrolidin-1-yl]-(3-methyl-1H-pyrazolo[3,4-b]pyridin-5-yl)-methanone]
The IC50 of the first is higher: 0.1 to 1 µM for the first, 0.01 to 0.1 µM for the second. The second is the more potent here.

Nc1n[nH]c2ccc(C(=O)N3CCC(O)(c4ccc(Cl)cc4)C3)cc12 (stereo not drawn) [compound 238, (3-Amino-1H-indazol-5-yl)-[3-(4-chloro-phenyl)-3-hydroxy-pyrrolidin-1-yl]-methanone] and Nc1n[nH]c2ccc(C(=O)N3CCC(CCO)(c4ccc(Cl)cc4)C3)cc12 (stereo not drawn) [compound 250, (3-Amino-1H-indazol-5-yl)-[3-(4-chloro-phenyl)-3-(2-hydroxy-ethyl)-pyrrolidin-1-yl]-methanone] fall in the same range of IC50: 0.1 to 1 µM for the first, 0.1 to 1 µM for the second.

First: O=C(c1cnc2[nH]ncc2c1)N1CCC[C@H]1c1ccc(Cl)cc1 [compound 239, [(S)-2-(4-Chloro-phenyl)-pyrrolidin-1-yl]-(1H-pyrazolo[3,4-b]pyridin-5-yl)-methanone]
Second: COc1n[nH]c2ncc(C(=O)N3CCC[C@H]3c3ccc(Cl)cc3)cc12 [compound 243, (S)-(2-(4-chlorophenyl)pyrrolidin-1-yl)(3-methoxy-1H-pyrazolo[3,4-b]pyridin-5-yl)methanone]
The IC50 of the first is higher: 0.1 to 1 µM for the first, 0.01 to 0.1 µM for the second. The second is the more potent here.

Compared with Cc1n[nH]c2ncc(C(=O)N3CC[C@@H]3c3ccc(Cl)cc3)cc12 [compound 240, [(R)-2-(4-Chloro-phenyl)-azetidin-1-yl]-(3-methyl-1H-pyrazolo[3,4-b]pyridin-5-yl)-methanone], Cc1n[nH]c2ncc(C(=O)N3CC[C@H]3c3ccc(Cl)cc3)cc12 [compound 241, [(S)-2-(4-Chloro-phenyl)-azetidin-1-yl]-(3-methyl-1H-pyrazolo[3,4-b]pyridin-5-yl)-methanone] is lower in IC50: 1 to 10 µM for the first, 0.01 to 0.1 µM for the second. The second is the more potent here.

Cc1n[nH]c2ccc(C(=O)N3CCC[C@H]3c3ccc(F)cc3)nc12 [compound 242, (S)-(2-(4-fluorophenyl)pyrrolidin-1-yl)(3-methyl-1H-pyrazolo[4,3-b]pyridin-5-yl)methanone] and Cc1n[nH]c2ccc(C(=O)N3CCC[C@H]3c3ccc(C(F)(F)F)cc3)nc12 [compound 257, (S)-(3-Methyl-1H-pyrazolo[4,3-b]pyridin-5-yl)(2-(4-(trifluoromethyl)phenyl)pyrrolidin-1-yl)methanone] cannot be ordered by IC50: less than 0.01 µM for the first, less than 0.01 µM for the second.

First: Cc1n[nH]c2ncc(C(=O)N3CCC[C@H]3c3ccc4[nH]ncc4c3)cc12 [compound 245, [(S)-2-(1H-Indazol-5-yl)-pyrrolidin-1-yl]-(3-methyl-1H-pyrazolo[3,4-b]pyridin-5-yl)-methanone]
Second: Cc1n[nH]c2ncc(C(=O)N3CCC[C@@H]3c3ccc4[nH]ncc4c3)cc12 [compound 246, [(R)-2-(1H-Indazol-5-yl)-pyrrolidin-1-yl]-(3-methyl-1H-pyrazolo[3,4-b]pyridin-5-yl)-methanone]
The IC50 of the first is lower: 0.01 to 0.1 µM for the first, 1 to 10 µM for the second. The first is the more potent here.

First: Cc1n[nH]c2ncc(C(=O)N3CCC[C@H]3c3ccc(C#N)cc3)cc12 [compound 247, 4-[(S)-1-(3-Methyl-1H-pyrazolo[3,4-b]pyridine-5-carbonyl)-pyrrolidin-2-yl]-benzonitrile]
Second: Cc1n[nH]c2ncc(C(=O)N3CCC[C@@H]3c3ccc(C#N)cc3)cc12 [compound 248, 4-[(R)-1-(3-Methyl-1H-pyrazolo[3,4-b]pyridine-5-carbonyl)-pyrrolidin-2-yl]-benzonitrile]
The IC50 of the first is lower: 0.01 to 0.1 µM for the first, 1 to 10 µM for the second. The first is the more potent here.

Cc1n[nH]c2ncc(C(=O)N3C[C@H](N)C[C@H]3c3ccc(Cl)cc3)cc12 [compound 251, [(2S,4R)-4-Amino-2-(4-chloro-phenyl)-pyrrolidin-1-yl]-(3-methyl-1H-pyrazolo[3,4-b]pyridin-5-yl)-methanone] and Cc1n[nH]c2ncc(C(=O)N3C[C@H](O)C[C@H]3c3ccc(Cl)cc3)cc12 [compound 261, [(2S,4R)-2-(4-Chloro-phenyl)-4-hydroxy-pyrrolidin-1-yl]-(3-methyl-1H-pyrazolo[3,4-b]pyridin-5-yl)-methanone] fall in the same range of IC50: 0.1 to 1 µM for the first, 0.1 to 1 µM for the second.

First: Cc1n[nH]c2ncc(C(=O)N3CCC[C@H]3c3ccc(Cl)c(C#N)c3)cc12 [compound 252, 2-Chloro-5-[(S)-1-(3-methyl-1H-pyrazolo[3,4-b]pyridine-5-carbonyl)-pyrrolidin-2-yl]-benzonitrile]
Second: Cc1n[nH]c2ncc(C(=O)N3CCC[C@@H]3c3ccc(Cl)c(C#N)c3)cc12 [compound 253, 2-Chloro-5-[(R)-1-(3-methyl-1H-pyrazolo[3,4-b]pyridine-5-carbonyl)-pyrrolidin-2-yl]-benzonitrile]
The IC50 of the first is lower: 0.1 to 1 µM for the first, 1 to 10 µM for the second.

First: CN[C@@H]1C[C@@H](c2ccc(Cl)cc2)N(C(=O)c2cnc3[nH]nc(C)c3c2)C1 [compound 254, [(2S,4R)-2-(4-Chloro-phenyl)-4-methylamino-pyrrolidin-1-yl]-(3-methyl-1H-pyrazolo[3,4-b]pyridin-5-yl)-methanone]
Second: Cc1n[nH]c2ncc(C(=O)N3C[C@@H](O)[C@H](c4ccc(Cl)cc4)C3)cc12 [compound 255, [(3R,4S)-3-(4-Chloro-phenyl)-4-hydroxy-pyrrolidin-1-yl]-(3-methyl-1H-pyrazolo[3,4-b]pyridin-5-yl)-methanone]
The IC50 of the first is lower: 0.1 to 1 µM for the first, 1 to 10 µM for the second.

Compared with Cc1n[nH]c2ncc(C(=O)N3C[C@H](c4ccc(Cl)cc4)[C@@H](O)C3)cc12 [compound 256, [(3S,4R)-3-(4-Chloro-phenyl)-4-hydroxy-pyrrolidin-1-yl]-(3-methyl-1H-pyrazolo[3,4-b]pyridin-5-yl)-methanone], Cc1n[nH]c2ncc(C(=O)N3CCC[C@H]3c3ccc(CN)cc3)cc12 [compound 262, [(S)-2-(4-Aminomethyl-phenyl)-pyrrolidin-1-yl]-(3-methyl-1H-pyrazolo[3,4-b]pyridin-5-yl)-methanone] is higher in IC50: less than 0.01 µM for the first, 0.1 to 1 µM for the second. The first is the more potent here.

First: Cc1n[nH]c2ncc(C(=O)N3CCC[C@@H]3c3cccc(C#N)c3)cc12 [compound 258, 3-[(R)-1-(3-Methyl-1H-pyrazolo[3,4-b]pyridine-5-carbonyl)-pyrrolidin-2-yl]-benzonitrile]
Second: Cc1n[nH]c2ncc(C(=O)N3CCC[C@H]3c3cccc(C#N)c3)cc12 [compound 259, 3-[(S)-1-(3-Methyl-1H-pyrazolo[3,4-b]pyridine-5-carbonyl)-pyrrolidin-2-yl]-benzonitrile]
The IC50 of the first is higher: 1 to 10 µM for the first, 0.1 to 1 µM for the second. The second is the more potent here.

In the case of Cc1n[nH]c2ccc(C(=O)N3CCCC3c3ccc(Cl)c(F)c3)nc12 (stereo not drawn) [compound 260, (2-(4-chloro-3-fluorophenyl)pyrrolidin-1-yl)(3-methyl-1H-pyrazolo[4,3-b]pyridin-5-yl)methanone], the IC50 is reported as less than 0.01 µM.

Same assay, conditions: CDK8 co-expressed with CycC; numeric value; read-out: IC50

Nc1n[nH]c2cnc(C(=O)N3CCC[C@H]3c3ccc(Cl)cc3)cc12 [compound 265] was tested, and the IC50 was 0.34 µM.

Same assay, conditions: IC50 [μM], CDK8 co-expressed with CycC; class symbols

Cc1n[nH]c2ccc(C(=O)N3CCN(C)CC3c3ccc(Cl)cc3)cc12 (stereo not drawn) [compound 244, (2-(4-chlorophenyl)-4-methylpiperazin-1-yl)(3-methyl-1H-indazol-5-yl)methanone] was tested, and the IC50 was 0.01 to 0.1 µM.
